# Data: US20240091191A1, “USES OF CORYLIN AND/OR NEOBAVAISOFLAVONE IN TREATING SYMPTOMS ASSOCIATED WITH SENESCENCE” (Chang Gung University, priority 2022, published 2024)
# Columns and labels:
# HUVECs [1] = test: Population doubling level (PDL) of HUVECs; type: cell-based, human
# Description: HUVECs were cultured in M199 medium supplemented with 4-(2-hydroxyethyl)-1-piperazineethanesulfonic acid (HEPES), endothelial cell growth supplement (ECGS; Millipore), heparin, NaHCO3, L-glutamine, sodium pyruvate, and 20% fetal bovine serum (FBS; final concentration). HaCaT cells were cultured in DMEM supplemented with 10% FBS and 2 mM glutamine. The cells were grown in an atmosphere of 5% CO2 at 37° C., and passaged to maintain under 90% confluency. The cells were propagated until senescence, and those in every passage were collected for further analysis, numbers of which were determined when sub-cultured.
# p21 = test: Western blot of p21 expression in HUVECs; type: cell-based, human; conditions: late stage HUVECs (PDL9)
# Description: HUVECs were cultured in M199 medium supplemented with 4-(2-hydroxyethyl)-1-piperazineethanesulfonic acid (HEPES), endothelial cell growth supplement (ECGS; Millipore), heparin, NaHCO3, L-glutamine, sodium pyruvate, and 20% fetal bovine serum (FBS; final concentration). HaCaT cells were cultured in DMEM supplemented with 10% FBS and 2 mM glutamine. The cells were grown in an atmosphere of 5% CO2 at 37° C., and passaged to maintain under 90% confluency. The cells were propagated until senescence, and those in every passage were collected for further analysis, numbers of which were determined when sub-cultured. Population doublings (PDs) were estimated following the equation: PDL=3.32 (log(total viable cells at harvest/total viable cells at seeding). The cells were harvested and lysed in RIPA lysis buffer containing 1% of Triton X-100 and a protease inhibitor cocktail, and total protein concentrations were measured with a protein assay kit. Proteins in the samples of the lysates with the same amounts of total protein were separated by sodium dodecyl sulfate polyacrylamide gel electrophoresis (SDS-PAGE) (10% polyacrylamide gels) and analyzed by immunoblotting. Primary antibodies against p21 and β-actin were applied to detect the corresponding proteins. […] Protein quantification was performed by software.
# HUVECs [2] = test: Senescence-associated (SA)-β-gal staining of HUVECs; type: cell-based, human; conditions: late stage HUVECs (PDL9), vs control without corylin
# Description: HUVECs at 90% confluency were collected, washed, and fixed with 2% formaldehyde and 0.2% glutaraldehyde for 5 minutes. The cells were then subjected to staining by incubation with a staining solution (40 mmol/l citric acid, sodium phosphate, pH 6.0, 1 mg/ml 5-bromo-4-chloro-3-isolyl-β-D-galactoside (X-gal, Sigma), 5 mmol/l potassium ferrocyanide, 5 mmol/l potassium ferricyanide, 150 mmol/l NaCl, and 2 mmol/l MgCl2) at 37° C. for 18 hours. The results of SA-β-gal-positive cells were observed by microscopy, and were counted for over 300 cells in at least three independent fields.
# HaCaT cells [3] = test: UVB-induced DNA breakage analysis; type: cell-based; conditions: 100 μM pretreatment 24 hours, UVB 30 mJ/m^2
# Description: HaCaT cells were seeded into a 12-well plate (7×10^4 cells/well), and incubated with 100 μM corylin or 100 μM neobavaisoflavone, or without drugs, for 24 hours, before subjected to UVB irradiation at 30 mJ/m^2. The irradiated cells were collected, washed, and mixed with 1% agarose gel solution 140 μl at 35° C., before being applied onto slides. The slides were placed at 4° C. for 1 hour for solidifying the gel, immersed in a lysis buffer for at least 1 hour and subsequently in an electrophoresis fluid for 40 minutes, and then subjected to gel-electrophoresis at 25 V for 20 minutes. The slides were immersed in a neutralizing solution for 5 minutes, mounted with 30 μl mounting medium with DAPI, and observed under a fluorescence microscope. The results were analyzed with the software OPEN COMET to quantify the breakage and the repair of the DNA in the cells.
# HaCaT cells [4] = test: UVB-induced apoptosis analysis (crystal violet); type: cell-based; conditions: 5 μM corylin or 20 μM neobavaisoflavone 4 hours, UVB 14 mJ/m^2 four runs
# Description: HaCaT cells were seeded into a 12-well plate (7×10^4 cells/well), and incubated with 5 μM corylin or 20 μM neobavaisoflavone, or without drugs, for 4 hours, before subjected to UVB irradiation at 14 mJ/m^2 for four runs. At 24 hours, the irradiated cells were collected, washed, and fixed with 4% paraformaldehyde, before being immersed in 0.5% crystal violet solution for 15 minutes at room temperature. The cells were washed, air-dried, photographed, and immersed in 50% ethanol containing 0.1% glacial acetic acid to remove the crystal violet dye. The absorbance at 550 nm was read by a microplate reader.
# HaCaT cells [5] = test: Intracellular NAD+ content; type: cell-based; conditions: 5 μM corylin or 20 μM neobavaisoflavone, 24 hours
# Description: HaCaT cells were seeded into a 6-cm dish (4×10^5 cells/dish), and incubated with 5 μM corylin or 20 μM neobavaisoflavone, or without drugs, for 24 hours, before being harvested. The harvested cells were extracted with 250 μl of 1 M glacial formic acid saturated with butanol, incubated for 30 minutes on ice. Then, 62.5 μl of 100% TCA (w/v) was added to each sample, and the samples were incubated on ice for an additional 15 minutes. The samples were pelleted by centrifugation at 14,000×g for 5 minutes, and the supernatant was transferred to another eppendorf tube. The pellets were then washed with 125 μl of 20% TCA, and centrifuged, and the supernatant was combined with the aforementioned supernatant. The combined supernatants were used for the following tests. […] After incubation at 30° C. for 20 minutes, the absorbance of each sample was measured at 340 nm. The NAD^+ level of the cells in each supernatant sample was determined by the test sample (the alcohol ADH catalytic group) relative to the corresponding control sample (the water group, as the basal NADH level).
# aged C57BL/6J mice = test: Survival of aged mice fed HFD with or without corylin; type: in vivo, mouse; conditions: corylin supplement 0.1% (w/w) in HFD
# Description: (§1) All animal procedures were complied with relevant regulations and were conducted under approved protocols (Protocol #CGU15-150) by Research Guidelines for the Care and Use of Laboratory Animals, Chang Guan University. C57BL/6J male mice (34 weeks of age) were maintained at 23±1° C. and at humidity of 45-65% with a 12 h dark/light cycle. After reaching 40 weeks of age, the mice were randomly divided into two groups: Group I (HFD), fed a HFD with 54% fat (n=30), and Group II (HFD/C), fed a HFD containing corylin (1 g corylin/1 kg HFD) (or the dose of corylin was 50 mg/kg) (n=30).
# (§2) The ability of corylin to delay the aging process in mice was examined in the present example. To this purpose, aged C57BL/6J mice (forty-week-old) were fed with a HFD or a HFD plus 0.1% (w/w) corylin (HFD/C) ad libitum for the rest of their lives.
# [6] = Pharmacokinetic analysis, serum level after corylin oral gavage; type: in vivo, mouse; conditions: mice
# Description: The blood samples of the C57BL/6J male mice (n=4) were collected at 1, 3, 6, 9, 12 and 15 h after corylin oral gavage, and the serum samples were then separated therefrom. Each serum sample (100 μl) was mixed with ice-cold acetonitrile (150 μl) at 4° C. for 1 hour, and then centrifuged at 15,000×g and 4° C. for 15 min. After centrifugation, the supernatant (150 μl) was harvested, and 150 μl ddH2O was added. The resulting mixture was analyzed by a LC/FTMS system.
# [7] = Body weight and food intake of aged HFD-fed mice; type: in vivo, mouse; conditions: entire course of the experiment
# Description: as §1, §2
"concentration at 1 h ([6]; male, C57BL/6J, mouse, serum, 1 hour after oral gavage) [nM]","concentration at 3 h ([6]; male, C57BL/6J, mouse, serum, 3 hours after oral gavage) [nM]","concentration at 6 h ([6]; male, C57BL/6J, mouse, serum, 6 hours after oral gavage) [nM]","concentration at 9 h ([6]; male, C57BL/6J, mouse, serum, 9 hours after oral gavage) [nM]","concentration at 12 h ([6]; male, C57BL/6J, mouse, serum, 12 hours after oral gavage) [nM]","concentration at 15 h ([6]; male, C57BL/6J, mouse, serum, 15 hours after oral gavage) [nM]",concentration at 12 h ([6]; 1 hour after oral gavage) [nM],concentration at 12 h ([6]; 15 hours after oral gavage) [nM],Compound,population doubling level (PDL) of HUVECs (HUVECs [1]),expression level of p21 (p21),number of SA-β-gal-positive senescent cells (HUVECs [2]),UVB-induced DNA breakage (HaCaT cells [3]),survival rate of the cell under UVB irradiation (HaCaT cells [4]),intracellular NAD+ level (HaCaT cells [5]),lifespan of aged mice fed on high fat diet (aged C57BL/6J mice),trajectory of body weight vs HFD group [7],trajectory of food intake vs HFD group [7]
680,500,490,540,390,260,680,260,CC1(C)C=Cc2cc(-c3coc4cc(O)ccc4c3=O)ccc2O1 [corylin],increase,decreased,decrease,completely suppressed,significantly increased,elevate,significantly increased,did not diverge,did not diverge
,,,,,,,,CC(C)=CCc1cc(-c2coc3cc(O)ccc3c2=O)ccc1O [neobavaisoflavone],,,,completely suppressed,significantly increased,elevate,,,
